Test results from US5843911A, “Hyaluronidase inhibitor containing god-type ellagitannin as active ingredient” (Suntory Limited, priority 1995, dated 1998).

Target: T1, bovine testis-derived hyaluronidase (Type IV of Sigma) (Bos taurus, UniProt Q2YDK3)
T1 construct: purchased Sigma Type IV; host or cells: bovine testis
T1 sequence (Q2YDK3 36-553): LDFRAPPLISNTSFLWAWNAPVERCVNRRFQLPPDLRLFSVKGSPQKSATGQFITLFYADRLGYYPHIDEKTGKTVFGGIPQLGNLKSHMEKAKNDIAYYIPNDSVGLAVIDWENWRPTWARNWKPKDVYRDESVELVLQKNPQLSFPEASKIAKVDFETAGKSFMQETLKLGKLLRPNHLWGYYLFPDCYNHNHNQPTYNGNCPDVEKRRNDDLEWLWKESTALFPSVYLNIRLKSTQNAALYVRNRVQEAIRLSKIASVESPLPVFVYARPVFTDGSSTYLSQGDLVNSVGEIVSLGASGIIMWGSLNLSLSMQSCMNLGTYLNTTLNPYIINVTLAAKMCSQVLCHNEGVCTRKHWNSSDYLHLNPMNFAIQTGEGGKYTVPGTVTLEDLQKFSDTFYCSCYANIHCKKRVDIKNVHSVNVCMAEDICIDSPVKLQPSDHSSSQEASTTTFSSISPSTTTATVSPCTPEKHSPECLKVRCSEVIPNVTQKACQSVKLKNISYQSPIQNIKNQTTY
Assay: Assay for the hyaluronidase inhibiting activity (inhibition of compound 48/80 activation of inactivated enzyme, colorimetric A585)
Assay type: biochemical
Conditions: 0.1M acetate buffer pH 4.0, 37° C., enzyme activated with compound 48/80, sodium hyaluronate substrate
Procedure: Stated more specifically, a suitable amount of a test sample was dissolved in 100 μl of a 0.1M acetate buffer solution (pH 4.0) and the solution was pipetted into a test tube. Following the addition of 0.10 mg (100 NF units) of the enzyme dissolved in 50 μl of the same buffer solution, the mixture was incubated at 37° C. for 20 min. […] Thereafter, 200 μg of sodium hyaluronate derived from a microorganism dissolved in 250 μl of the same buffer solution was added and the mixture was incubated at 37° C. for 40 min. Finally, 100 μl of 0.4N NaOH was added and, after cooling with ice, 100 μl of a borate buffer solution (pH 9.10) was added and the mixture was boiled for 3 min; after cooling with ice, 3 ml of a p-dimethylaminobenzaldehyde solution was added and the mixture was incubated for 20 min at 37° C. before [MUT] measurement was conducted. In place of the sample solution, 0.1M acetate buffer solution (pH 4.0) was used to prepare a control. […] The hyaluronidase inhibiting activity of the sample solution was expressed by percent inhibition as determined from the following equation: [formula] where A: [MUT] of the control solution B: [MUT] of the blank for the control solution C: [MUT] of the sample solution D: [MUT] of the blank for the sample solution.

IC50: 299 µM
SMILES: O=C(O)c1cc(=O)c2c(OCC(O)COc3cccc4oc(C(=O)O)cc(=O)c34)cccc2o1 [Sodium cromoglycate]
